Test results taken from patent US20250360113A1, “ADMINISTRATION OF DHB TO INCREASE BENEFIT OF LOSING WEIGHT OF INTERMITTENT FASTING” (NANJING NUTRABUILDING BIO-TECH CO., LTD., priority 2023, published 2025).

Tests used:
[1] = in vitro; cited from earlier work
ADRB3 = test: mRNA levels of ADRB3 from inguinal WAT by qRT-PCR; type: in vivo, C57BL/6 male mice; settings: HFD obese mice
Description: (§1) 50 C57BL/6 male mice aged about 8 weeks, are randomly assigned to five study groups (GA, GB1, GB2, GB3, GB4) of ten mice each (one cage, […]). Mice were maintained in a pathogen free condition under a strict 12 h light/dark cycle (0600/1800 h) with 12-15 cycles/hour of air change. Mice were provided with access to respective feed and water ad libitum as per experimental conditions. Mice were housed under controlled laboratory conditions of temperature and humidity at 23±2° C. and 50±10% RH, respectively. Each study group consisted of ten animals, and treatment details of the individual study groups are given below: • Group A (GA, NC): Normal mice, maintained on normal diet (standard chow, 12% calories from fat; 23% calories from protein and 65% calories from carbohydrates) for 8 weeks, receiving neither EODF nor DHB treatment. • Group B1 (GB1): Obese mice, maintained on high fat diet (HFD, 60% calories from fat, 20% calories from protein, 20% calories from carbohydrate) for 8 weeks, receiving neither EODF nor DHB treatment. • Group B2 (GB2): Obese mice, maintained on HFD for 8 weeks, receiving only EODF and no DHB treatment. • Group B3 (GB3): Obese mice, maintained on HFD for 8 weeks, receiving only DHB treatment and no EODF. • Group B4 (GB4): Obese mice, maintained on HFD for 8 weeks, receiving DHB treatment and EODF combination. DHB was administered daily via intragastric injection (i.g.) according to a level of 70 mg/kg body weight. Mice not receiving DHB were given orally with ultrapure water. The mRNA levels of ADRB3 protein from inguinal WAT were determined by qRT-PCR.

[2] = Oral glucose tolerance test (OGTT); type: in vivo, C57BL/6 male mice; settings: HFD obese mice
Description: as §1, with “water. Oral glucose tolerance test (OGTT): To measure glucose levels in blood, GTT were implemented in the mice (NC and HFD groups) after overnight by using a glucose analyzer.” for “water.”, “glucose concentrations were measured in blood collected by venous bleeding from the tail vein immediately at 0, 15, 30, 60 and 120 min after administered glucose at 2 g/kg orally. Towards the end” for “mRNA levels”, “the final week of the study, GTT was also performed for all mice (NC and HFD groups).” for “ADRB3 protein from inguinal WAT were determined by qRT-PCR.”

[3] = Serum insulin and leptin by ELISA at end of treatment; type: in vivo, C57BL/6 male mice; settings: HFD obese mice
Description: as §1, with “Serum” for “The mRNA”, “insulin and leptin” for “ADRB3 protein from inguinal WAT”, “determined at the end of the treatment period” for “determined”, “standard ELISA methods. Since one key feature of obesity is the development of insulin and leptin resistance resulting in an elevation of the circulating levels of these two hormones as a consequence of compensatory physiological responses to insulin and leptin insensitivity, thus leptin is one of the major adipocytokines associated with maintaining glucose homeostasis.” for “qRT-PCR.”

[4] = DHB 70 mg/kg i.g. daily with or without EODF vs no DHB
[5] = DHB + EODF combination vs EODF only

COc1ccc2c(c1OC)CN1CCc3cc4c(cc3C1=C2)OCO4 [DHB, Dihydroberberine]
intestinal absorption rate relative to BBR [1]: five times higher | ADRB3 abundance (mRNA, inguinal WAT) (ADRB3; [4]): increasing | lipolysis specifically in WAT (ADRB3; [4]): upregulated | triggering lipolysis specifically in WAT (ADRB3; [5]): greater effects | blood glucose levels ([2]; DHB 70 mg/kg i.g. daily vs no DHB with and without EODF, FIGS. 11-14): greater reduction | improving the glucose tolerance [2, 5]: greater effects | reducing the blood glucose levels [2, 5]: greater effects | glucose tolerance ([2]; glucose 2 g/kg orally, DHB vs no DHB with and without EODF): better | insulin resistance (serum levels of insulin) ([3]; DHB 70 mg/kg i.g. daily with or without EODF vs no DHB, FIG. 9): improved | leptin resistance (serum levels of leptin) ([3]; DHB 70 mg/kg i.g. daily with or without EODF vs no DHB, FIG. 10): improved | improving insulin resistance [3, 5]: greater effects | improving leptin resistance [3, 5]: greater effects
